Results published in paper PMC7115413 (European Journal of Medicinal Chemistry, 2016).

Tests used:
[1] = Cytotoxicity test; format: cell-based; conditions: human, TZM-bl cells
[2] = Solubility in water; format: physicochemical

Q: For enfuvirtide, which CC50 [1] is on record?
A: > 100 µM

Q: What about the “aqueous solubility (in words)” value [2] of the same substance?
A: negligible
